According to US12364690B2, “Therapeutic agent for bile duct cancer” (NATIONAL CANCER CENTER, priority 2015, dated 2025):
Where two headings read alike, the source gives them in different places.

Experiments:
[1] = system: NIH3T3 cell line transfected with the FGFR2 fusion gene; assay: Immunoblot (Western blot) analysis of downstream signal of FGFR2 fusion gene; type: cell-based, mouse; settings: final concentration of FGFR inhibitor 0.2 μM or 0.5 μM, FIG. 3
Protocol: First, the wild-type FGFR2 fusion gene or KD mutant FGFR2 fusion gene was transfected into the mouse fibroblast cell line NIH3T3 using the retrovirus, and the obtained cell line was cultured in a liquid culture medium. The cultured cell line was subjected to serum starvation, and then treated with a culture medium containing an FGFR inhibitor before extracting the total proteins. Herein, the protein encoded by FGFR2-BICC1 type2, the protein encoded by FGFR2-TXLNA and the protein encoded by FGFR2-KCTD1 are shown in SEQ ID NOs: 6, 2 and 4, respectively.
Next, the NIH3T3 cell line transfected with the FGFR2 fusion gene was subjected to Western blot analysis after adding the FGFR inhibitor to the cell line (the final concentration of the FGFR inhibitor: 0.2 μM or 0.5 μM) and extracting the total proteins similarly.

[2] = Relative body weight in transplant model mice (safety of dosage); type: in vivo, mouse; settings: 6.25, 12.5, 25 and 50 mg/kg orally once a day; dosage judged as safe
Protocol: Based on the tumor volume on the first day of administration, the mice were grouped so that mean values of the tumor volume of the groups were nearly equal to each other. […]. The Compound A solution was continuously administered orally to the mice in the Compound A administration group once a day at a dosage of 20 mL/kg. On the other hand, only the solvent (water for injection) was similarly administered to the mice in the control group. The Administration was carried out to FGFR2-BICC1 type2 or FGFR2-KCTD1 transplant model mice for 7 days and to FGFR2-TXLNA transplant model mice for 11 days.
On the first day and the last day of the administration, body weight was measured for each mice in the control group and the Compound A administration group. The ratio of the body weight on the last day to the body weight on the first day (relative body weight: RBW) was calculated. When the RBW of the Compound A administration group/the RBW of the control group was 0.9 or more, the dosage was judged as safe. The corresponding dosage was 6.25, 12.5, 25 and 50 mg/kg.

[3] = molecular target: NIH3T3 cell transfected with FGFR2-BICC1 type2 (Homo sapiens, UniProt P21802, DEL126-151/R152G)
NIH3T3 cell transfected with FGFR2-BICC1 type2, sequence (P21802 with tags, fused parts or gaps isoform P21802-22 DEL37-62/R63G): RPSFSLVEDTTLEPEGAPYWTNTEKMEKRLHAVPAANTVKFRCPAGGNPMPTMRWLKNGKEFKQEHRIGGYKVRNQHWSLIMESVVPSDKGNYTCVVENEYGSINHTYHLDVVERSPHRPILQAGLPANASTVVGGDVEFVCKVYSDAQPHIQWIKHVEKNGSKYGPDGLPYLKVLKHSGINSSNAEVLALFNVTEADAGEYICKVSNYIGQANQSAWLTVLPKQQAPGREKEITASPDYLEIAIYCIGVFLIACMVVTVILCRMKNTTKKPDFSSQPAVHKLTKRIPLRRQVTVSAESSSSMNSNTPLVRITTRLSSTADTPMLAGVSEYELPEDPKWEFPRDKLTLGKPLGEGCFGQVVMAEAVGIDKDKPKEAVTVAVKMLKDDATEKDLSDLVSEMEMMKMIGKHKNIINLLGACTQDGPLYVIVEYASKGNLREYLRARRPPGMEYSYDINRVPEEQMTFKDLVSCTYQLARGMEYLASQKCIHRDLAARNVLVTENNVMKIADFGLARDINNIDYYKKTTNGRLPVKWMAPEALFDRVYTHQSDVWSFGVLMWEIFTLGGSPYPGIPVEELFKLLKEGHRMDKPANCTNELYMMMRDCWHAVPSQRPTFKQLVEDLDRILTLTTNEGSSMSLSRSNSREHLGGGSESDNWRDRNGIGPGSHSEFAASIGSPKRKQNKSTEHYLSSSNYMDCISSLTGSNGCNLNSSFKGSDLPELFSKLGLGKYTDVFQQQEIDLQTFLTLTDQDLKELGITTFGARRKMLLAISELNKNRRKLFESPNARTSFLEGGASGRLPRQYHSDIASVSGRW
Protocol: (§1) Using the following apparatus, the activity of FGFR inhibitors on the transformation capacity of FGFR2 fusion polypeptide was evaluated.

[4] = molecular target: NIH3T3 cells transfected with FGFR2-KCTD1 (Homo sapiens, UniProt P21802); settings: final concentration 0.2 μM; soft agar; FIG. 5 and FIG. 6
NIH3T3 cells transfected with FGFR2-KCTD1, sequence (P21802 with tags, fused parts or gaps isoform P21802-22): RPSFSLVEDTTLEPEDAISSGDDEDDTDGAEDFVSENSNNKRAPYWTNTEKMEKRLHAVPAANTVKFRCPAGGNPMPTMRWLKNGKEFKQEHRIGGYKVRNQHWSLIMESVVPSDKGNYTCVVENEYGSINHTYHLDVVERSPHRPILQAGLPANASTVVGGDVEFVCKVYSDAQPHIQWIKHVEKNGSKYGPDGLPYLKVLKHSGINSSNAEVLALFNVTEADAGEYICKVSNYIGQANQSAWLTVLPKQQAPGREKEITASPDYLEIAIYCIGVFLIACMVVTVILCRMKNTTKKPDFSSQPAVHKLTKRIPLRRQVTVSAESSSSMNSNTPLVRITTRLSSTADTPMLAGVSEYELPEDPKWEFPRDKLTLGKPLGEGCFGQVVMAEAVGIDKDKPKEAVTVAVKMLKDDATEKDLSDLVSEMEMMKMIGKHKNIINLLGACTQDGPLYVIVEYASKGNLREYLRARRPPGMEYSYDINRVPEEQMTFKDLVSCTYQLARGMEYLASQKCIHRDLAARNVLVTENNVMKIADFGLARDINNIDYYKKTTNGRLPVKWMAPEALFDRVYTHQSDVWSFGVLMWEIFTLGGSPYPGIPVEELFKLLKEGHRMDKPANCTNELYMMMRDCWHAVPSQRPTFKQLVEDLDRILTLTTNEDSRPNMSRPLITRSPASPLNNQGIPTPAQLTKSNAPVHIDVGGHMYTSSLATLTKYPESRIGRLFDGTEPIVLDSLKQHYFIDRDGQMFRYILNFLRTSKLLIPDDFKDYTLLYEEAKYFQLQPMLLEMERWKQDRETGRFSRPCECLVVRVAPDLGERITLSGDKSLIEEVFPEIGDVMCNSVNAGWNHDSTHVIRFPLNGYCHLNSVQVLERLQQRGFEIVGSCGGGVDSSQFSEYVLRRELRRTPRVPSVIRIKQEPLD
Protocol: as §1

[5] = molecular target: NIH3T3 cells transfected with FGFR2-TXLNA (Homo sapiens, UniProt P21802, DEL126-151/R152G); settings: final concentration 0.2 μM; soft agar; FIG. 5 and FIG. 6
NIH3T3 cells transfected with FGFR2-TXLNA, sequence (P21802 with tags, fused parts or gaps isoform P21802-22 DEL37-62/R63G): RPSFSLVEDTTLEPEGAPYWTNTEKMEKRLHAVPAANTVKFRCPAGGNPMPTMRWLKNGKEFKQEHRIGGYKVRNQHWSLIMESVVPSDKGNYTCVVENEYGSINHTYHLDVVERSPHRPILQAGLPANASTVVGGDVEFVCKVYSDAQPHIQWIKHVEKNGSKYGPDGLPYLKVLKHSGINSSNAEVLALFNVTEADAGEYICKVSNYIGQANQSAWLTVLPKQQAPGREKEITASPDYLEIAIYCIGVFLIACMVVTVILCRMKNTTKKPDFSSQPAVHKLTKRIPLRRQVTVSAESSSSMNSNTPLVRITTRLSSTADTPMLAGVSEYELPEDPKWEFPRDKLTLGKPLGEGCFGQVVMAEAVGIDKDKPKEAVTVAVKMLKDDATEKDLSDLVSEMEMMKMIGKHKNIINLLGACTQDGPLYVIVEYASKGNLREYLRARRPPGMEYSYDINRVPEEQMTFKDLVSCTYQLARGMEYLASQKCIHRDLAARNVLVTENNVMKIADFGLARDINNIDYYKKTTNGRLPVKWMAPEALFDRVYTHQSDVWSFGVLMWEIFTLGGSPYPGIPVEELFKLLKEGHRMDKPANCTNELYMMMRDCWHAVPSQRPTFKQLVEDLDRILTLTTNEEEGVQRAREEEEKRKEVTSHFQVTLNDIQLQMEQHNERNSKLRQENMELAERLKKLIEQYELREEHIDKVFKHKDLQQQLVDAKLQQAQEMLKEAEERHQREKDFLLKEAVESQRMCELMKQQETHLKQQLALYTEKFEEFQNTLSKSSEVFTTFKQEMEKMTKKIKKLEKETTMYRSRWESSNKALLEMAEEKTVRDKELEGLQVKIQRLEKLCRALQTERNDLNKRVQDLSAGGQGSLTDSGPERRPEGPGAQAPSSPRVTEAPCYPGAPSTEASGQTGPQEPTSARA
Protocol: as §1

Compound: CCN(CC)CCCCNc1ncc2cc(-c3cc(OC)cc(OC)c3)c(NC(=O)NC(C)(C)C)nc2n1 [PD173074]
- phosphorylation of FGFR [1]: suppressed
- phosphorylation of MAPK [1]: significantly suppressed

Compound: CNC(=O)n1ccc2cc(Oc3ccnc(NC(=O)c4ccc(C5CCN(CCO)CC5)cc4)c3)c(OCCOC)cc21 [Compound A, 5-((2-(4-(1-(2-hydroxyethyl)piperidin-4-yl)benzamide)pyridin-4-yl)oxy)-6-(2-methoxyethoxy)-N-methyl-1H-indole-1-carboxamide 1.5 succinate]
- phosphorylation of FGFR [1]: suppressed
- phosphorylation of MAPK [1]: significantly suppressed
- RBW of the Compound A administration group/the RBW of the control group [2]: ≥ 0.9

Compound: CCN1CCN(c2ccc(Nc3cc(N(C)C(=O)Nc4c(Cl)c(OC)cc(OC)c4Cl)ncn3)cc2)CC1 [BGJ398]
- phosphorylation of FGFR [1]: suppressed
- phosphorylation of MAPK [1]: significantly suppressed
- anchorage independent growth ([3]; final concentration 0.2 μM, soft agar, FIG. 5 and FIG. 6): little suppressed
- anchorage independent growth ([3]; final concentration 1.0 μM, FIG. 7): suppressed
- anchorage independent growth [4]: significantly suppressed
- anchorage independent growth [5]: significantly suppressed
